Active and inactive are the calls of the source.
Key:
[1] = system: Streptococcus sp. 'group A'; assay: Streptococcus pyogenes SK(-)GAS viability under kanamycin – luminescence, BacTiterGlo, confirmation, counter-screen for streptokinase expression inhibitor project, dose response (AID 1900); type: functional, organism-based
[2] = target: T1, SUMO-activating enzyme (Homo sapiens, UniProt Q9UBT2); assay: blockers of UBC9-mediated SUMO conjugation – biochemical, AlphaScreen, SUMOylation inhibitor project, confirmation (AID 2018); type: functional
[3] = target: T1, SUMO-activating enzyme; assay: blockers of SAE1/SAE2–UBC9 SUMO transfer – biochemical, HTRF, uHTS, primary screen (AID 2006); type: protein-complex assay
[4] = system: Streptococcus; assay: GAS UMAA2166 growth inhibition – luminescence, BacTiterGlo, counter-screen for streptokinase expression inhibitor project, dose response (AID 1915); type: functional, organism-based;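 also: potency for reduction of bacterial viability or growth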
[5] = target: T2, X-box-binding protein 1 (Homo sapiens, UniProt P17861); type: functional, Cricetulus griseus;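 also: confirmatory dose-response counter-screen serving a CHOP assay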
T2 sequence (P17861 whole entry): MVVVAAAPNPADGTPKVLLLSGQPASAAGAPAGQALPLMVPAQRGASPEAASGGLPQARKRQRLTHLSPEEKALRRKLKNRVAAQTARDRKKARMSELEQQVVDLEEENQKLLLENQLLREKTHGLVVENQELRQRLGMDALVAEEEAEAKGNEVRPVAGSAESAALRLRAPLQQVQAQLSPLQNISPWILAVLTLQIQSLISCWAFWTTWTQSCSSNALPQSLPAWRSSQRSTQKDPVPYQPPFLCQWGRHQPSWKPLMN

[6] = target: T3, Protein RecA (Mycobacterium tuberculosis, UniProt P9WHJ3); assay: Fluorescence Cell-Free Homogeneous Dose Retest to Identify Inhibitors of RecA-Intein Splicing Activity. [Related pubchem assays (depositor defined):AID2097, AID2223, AID489010, AID492950]; type: functional
T3 sequence (P9WHJ3 whole entry): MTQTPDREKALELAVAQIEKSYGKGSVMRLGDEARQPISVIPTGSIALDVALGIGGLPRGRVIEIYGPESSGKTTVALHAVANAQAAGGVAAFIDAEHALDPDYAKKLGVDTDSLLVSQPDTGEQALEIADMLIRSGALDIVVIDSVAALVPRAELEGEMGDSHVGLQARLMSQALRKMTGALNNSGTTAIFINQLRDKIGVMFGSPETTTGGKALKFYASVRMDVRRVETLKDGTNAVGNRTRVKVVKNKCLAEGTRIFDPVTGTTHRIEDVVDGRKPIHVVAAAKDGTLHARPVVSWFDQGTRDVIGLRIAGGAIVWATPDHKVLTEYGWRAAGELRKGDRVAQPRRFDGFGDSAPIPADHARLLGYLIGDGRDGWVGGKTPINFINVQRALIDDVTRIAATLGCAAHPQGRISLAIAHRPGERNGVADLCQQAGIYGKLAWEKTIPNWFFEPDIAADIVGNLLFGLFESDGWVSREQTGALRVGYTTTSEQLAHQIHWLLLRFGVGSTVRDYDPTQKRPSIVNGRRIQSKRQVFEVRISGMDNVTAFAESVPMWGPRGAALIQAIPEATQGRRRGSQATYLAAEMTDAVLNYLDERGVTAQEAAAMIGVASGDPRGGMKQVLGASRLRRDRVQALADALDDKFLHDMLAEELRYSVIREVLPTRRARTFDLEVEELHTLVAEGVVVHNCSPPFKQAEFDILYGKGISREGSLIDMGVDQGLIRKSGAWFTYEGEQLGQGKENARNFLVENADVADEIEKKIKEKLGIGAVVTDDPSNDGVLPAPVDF

[7] = target: T4, Long-chain-fatty-acid--AMP ligase FadD28 (Mycobacterium tuberculosis, UniProt P9WQ59); assay: Fluorescence polarization aasay to screen for inhibitors that compete for the binding of FadD28 to a bisubstrate Measured in Biochemical System Using Plate Reader - 2147-01_Inhibitor_Dose_CherryPick_Activity.; type: functional, Mycobacterium tuberculosis H37Rv
T4 sequence (P9WQ59 whole entry): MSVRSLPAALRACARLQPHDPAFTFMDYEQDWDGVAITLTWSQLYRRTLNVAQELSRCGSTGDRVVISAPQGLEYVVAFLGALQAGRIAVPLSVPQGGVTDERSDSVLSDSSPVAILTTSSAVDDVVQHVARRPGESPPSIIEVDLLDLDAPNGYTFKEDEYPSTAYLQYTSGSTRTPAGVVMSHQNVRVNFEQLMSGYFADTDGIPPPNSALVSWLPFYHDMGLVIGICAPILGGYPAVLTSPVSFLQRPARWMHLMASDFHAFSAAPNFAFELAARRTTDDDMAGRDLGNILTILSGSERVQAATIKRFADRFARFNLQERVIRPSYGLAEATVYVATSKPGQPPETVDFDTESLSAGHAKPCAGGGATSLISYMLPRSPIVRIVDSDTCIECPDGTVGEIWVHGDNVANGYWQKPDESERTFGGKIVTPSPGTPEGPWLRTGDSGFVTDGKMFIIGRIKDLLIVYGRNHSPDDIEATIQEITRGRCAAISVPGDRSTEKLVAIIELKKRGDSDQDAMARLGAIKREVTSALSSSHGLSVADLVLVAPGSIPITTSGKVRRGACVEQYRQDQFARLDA

[8] = target: E3 ubiquitin-protein ligase UHRF1 (Homo sapiens, UniProt Q96T88); assay: Counterscreen for inhibitors of 5-meCpG-binding domain protein 2 (MBD2): TRFRET-based biochemical high throughput dose response assay to identify inhibitors of binding of ubiquitin-like with PHD and ring finger domains 1 (UHRF1) to methylated oligonucleotide.
Chain of E3 ubiquitin-protein ligase UHRF1 (Q96T88 whole entry, the tested form may be a part): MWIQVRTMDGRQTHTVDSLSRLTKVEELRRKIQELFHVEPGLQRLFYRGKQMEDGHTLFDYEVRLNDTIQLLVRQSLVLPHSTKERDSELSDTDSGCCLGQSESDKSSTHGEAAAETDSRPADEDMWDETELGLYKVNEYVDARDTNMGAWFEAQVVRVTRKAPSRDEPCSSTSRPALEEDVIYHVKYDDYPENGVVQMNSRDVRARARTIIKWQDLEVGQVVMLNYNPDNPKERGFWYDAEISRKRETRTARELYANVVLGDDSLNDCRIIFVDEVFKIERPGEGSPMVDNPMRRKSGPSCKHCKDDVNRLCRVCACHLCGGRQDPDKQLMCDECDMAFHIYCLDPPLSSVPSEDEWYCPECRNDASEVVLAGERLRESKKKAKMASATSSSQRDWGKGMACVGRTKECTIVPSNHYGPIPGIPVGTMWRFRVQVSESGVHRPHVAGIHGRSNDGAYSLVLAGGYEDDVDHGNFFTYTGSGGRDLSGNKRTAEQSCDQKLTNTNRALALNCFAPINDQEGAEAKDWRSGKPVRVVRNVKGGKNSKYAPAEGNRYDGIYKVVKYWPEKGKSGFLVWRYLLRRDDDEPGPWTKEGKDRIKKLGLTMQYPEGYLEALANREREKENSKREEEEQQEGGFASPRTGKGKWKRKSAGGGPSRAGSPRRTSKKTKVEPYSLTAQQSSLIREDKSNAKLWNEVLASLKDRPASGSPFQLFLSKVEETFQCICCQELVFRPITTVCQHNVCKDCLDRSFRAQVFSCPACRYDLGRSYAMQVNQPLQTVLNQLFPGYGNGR

T1 sequence (Q9UBE0 whole entry): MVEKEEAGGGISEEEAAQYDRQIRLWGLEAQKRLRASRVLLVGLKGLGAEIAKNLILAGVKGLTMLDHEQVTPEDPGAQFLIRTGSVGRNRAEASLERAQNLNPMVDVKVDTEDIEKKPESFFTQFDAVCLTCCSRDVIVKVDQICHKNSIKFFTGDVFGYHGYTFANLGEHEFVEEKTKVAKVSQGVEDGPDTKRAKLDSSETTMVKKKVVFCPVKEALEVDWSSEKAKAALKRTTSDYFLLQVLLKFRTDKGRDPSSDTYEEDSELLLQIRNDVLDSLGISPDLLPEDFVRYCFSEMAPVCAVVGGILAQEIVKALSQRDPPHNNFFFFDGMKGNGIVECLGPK
T1 sequence (Q9UBT2 whole entry): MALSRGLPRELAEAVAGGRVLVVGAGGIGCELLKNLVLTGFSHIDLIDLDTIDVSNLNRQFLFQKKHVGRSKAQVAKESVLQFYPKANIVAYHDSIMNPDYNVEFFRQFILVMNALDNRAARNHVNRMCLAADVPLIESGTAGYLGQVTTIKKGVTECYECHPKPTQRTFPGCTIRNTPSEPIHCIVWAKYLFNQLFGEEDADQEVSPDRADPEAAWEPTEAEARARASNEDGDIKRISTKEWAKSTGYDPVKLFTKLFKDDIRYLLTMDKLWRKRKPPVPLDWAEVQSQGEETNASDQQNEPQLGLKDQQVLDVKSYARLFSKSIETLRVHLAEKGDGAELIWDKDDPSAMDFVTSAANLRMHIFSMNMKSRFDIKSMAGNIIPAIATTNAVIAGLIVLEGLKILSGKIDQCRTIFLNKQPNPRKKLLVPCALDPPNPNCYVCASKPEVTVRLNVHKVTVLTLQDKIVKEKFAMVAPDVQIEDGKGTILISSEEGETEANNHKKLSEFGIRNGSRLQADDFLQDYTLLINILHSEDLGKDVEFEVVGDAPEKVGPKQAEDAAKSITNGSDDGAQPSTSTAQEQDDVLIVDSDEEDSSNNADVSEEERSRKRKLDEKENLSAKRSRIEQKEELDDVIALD

CCCCn1c(NS(=O)(=O)c2ccccc2)c(S(=O)(=O)c2ccc(C)cc2)c2nc3ccccc3nc21
EC50 [1]: 3.56 µM (active)
IC50 [2]: 0.68 µM (active)
IC50 [3]: 1.83 µM (active)
EC50 [4]: 14.1 µM (active)
Absolute IC50 (XBP1) [5]: 10 µM
EC50 [6]: 0.0801 µM (inconclusive)
AC50 [7]: 46.5 µM (active)
IC50 [8]: > 43.8 µM (inactive)

Source: ChEMBL document CHEMBL1201862, “PubChem BioAssay data set” (2004)
